These results are taken from patent US20180071284A1, “PREVENTING OR TREATING VIRAL INFECTION BY INHIBITION OF THE HISTONE METHYLTRANSFERASE EZH1 OR EZH2” (The United States of America, as represented by the …, priority 2015, published 2018).

Assay type in all cases: cell-based, herpes simplex virus 1 (HSV-1)
Assay [1] has as its system HSV-1. The experiment in a line: UL29+ single neurons and neuron clusters in explanted trigeminal ganglia. The following applies: explant 48-hrs; compound 1 35 μM, compound 4 30 μM, ACV 100 μM, ML324 50 μM. The source says:
Trigeminal ganglia were fixed in paraformaldehyde and tissue sections were […] with anti-UL29 and DAPI. The HSV E gene UL29 (DNA single strand binding replication protein) was used a marker for viral reactivation. Tissue sections were scored for UL29+ cell clusters (clusters indicate viral spread from the primary neuron to surrounding cells) and for individual neurons representing the primary reactivation event (single) (FIGS. 18 and 19).
Trigeminal ganglia were fixed in paraformaldehyde and tissue sections were costained with anti-UL29 and DAPI. The HSV E gene UL29 (DNA single strand binding replication protein) was used a marker for viral reactivation. Tissue sections were scored for UL29+ cell clusters (clusters indicate viral spread from the primary neuron to surrounding cells) and for individual neurons representing the primary reactivation event (single) (FIG. 25).

The test system of assay [2] is HSV-1. In words: Removal of inhibitors prior to HSV-1 infection of HFF cells (mRNA levels). The following applies: washed, then infected; for HSV IE expression after removal of compound prior to infection: 5-hrs treatment (compound 1 35 μM, 2 15 μM, 3 30 μM, 4 30 μM); for IL6 stimulation after removal of compound prior to infection: 5-hrs treatment. How it is done: HFF cells were treated with inhibitors targeting the catalytic SET domain (compound 1, 35 μM: EZH2; compound 2, 15 μM: EZH2 and EZH1; compound 4, 30 μM: EZH2), EED-EZH2 and EED-EZH1 (compound 3, 30 μM), or DMSO (control) for 5-hrs. Cells were then washed with phosphate buffered saline (PBS) and replaced with media with no inhibitors for the indicated time in FIGS. 21-24 prior to infection with HSV-1 (2.0 PFU per cell) for 1.5-hrs in the absence of inhibitors.

The test system of assay [3] is HSV-1. The experiment in a line: Mouse trigeminal ganglia explant reactivation model, viral yield titrated on Vero cells. Particulars: explant 48-hrs; compound 1 35 μM, compound 3 30 μM, compound 4 30 μM. How it is done: Trigeminal ganglia from HSV-1 latently infected mice were bisected. Half were explanted in media with control DMSO (vehicle), and the other half were explanted in media with ACV (100 μM), ML324 (50 μM), compound 1 (35 μM), compound 3 (30 μM), or compound 4 (30 μM) for 48-hrs to induce viral reactivation. Viral yields were determined by titrating on Vero cells. Each point represents the titer of one explanted trigeminal ganglia.

For assay [4], the system named is HSV-1. The experiment in a line: HSV-1 viral IE mRNA levels in infected Vero (IFN-β null, IRF3 deficient) cells. Particulars: 5-hrs pretreatment, HSV-1 2.0 PFU per cell. The procedure:
HFF (wild-type) and Vero (IFN-β null, IRF3 deficient) cells were treated with the indicated concentration of EZH1/2 catalytic inhibitor (compound 1 or 4) or DMSO (vehicle) for 5-hrs. HFF and Vero cells were then infected with HSV-1 (2.0 PFU per cell) for 1.5-hrs in the presence of inhibitor or DMSO. The levels of HSV viral IE (ICP0, ICP4, ICP22, and ICP27) and cellular control (SP1 and TBP) mRNAs are expressed relative to cells treated with DMSO (vehicle).

Assay [5] relates to HSV-1. The experiment in a line: Spread of HSV infection in HFF cells (UL29 staining). Particulars: HSV-1 MOI 0.01 for 8.5-hrs, then treated for 12.5-hrs (30 μM). How it is done:
HFF cells were mock or infected with HSV-1 (MOI 0.01) for 8.5-hrs to allow one round of the viral replication program. The HFF cells were then treated with EZH1/2 inhibitor (compound 1 or compound 4 at 30 μM), viral DNA polymerase inhibitor (ACV at 100 μM), or JMJD3 inhibitor (ML324 at 50 μM) for an additional 12.5-hrs. Cells were paraformaldehyde fixed, permeabilized, and stained for the viral E gene UL29 and actin. The viral E protein UL29 was used as a marker for the spread of viral infection.
HFF cells were mock or infected with HSV-1 (MOI 0.01) for 8.5-hrs to allow one round of the viral replication program. HFF cells were then treated with EZH1/2 (compound 1, compound 4), viral DNA polymerase (ACV), or JMJD3 (ML324) inhibitors for additional 12.5-hrs. Cells were paraformaldehyde fixed, permeabilized, and stained for the viral E gene UL29 and actin (Phalloidin). The viral E protein UL29 was used as a marker for the spread of viral infection.

Assay [6] concerns HSV-1. The experiment in a line: HSV-1 cellular and nuclear entry (viral DNA in total and nuclear fractions of HFF cells). The following applies: compound 1 35 μM, compound 4 30 μM, 5-hrs pretreatment, HSV-1 2.0 PFU per cell 1.5-hrs. How it is done:
HFF cells were treated with the EZH1/2 catalytic inhibitor compound 1 (35 μM), compound 4 (30 μM), or DMSO (vehicle) for 5-hrs. The HFF cells were then infected with HSV-1 (2.0 PFU per cell) for 1.5-hrs in the presence of the inhibitors or DMSO (vehicle). The levels of HSV viral DNA isolated from total and nuclear cellular fractions are expressed as ratios relative to DMSO (vehicle).

“Also recorded” adds a separate entry of the source.

`Nc1nc2c(ncn2COCCO)c(=O)[nH]1` [ACV, Acyclovir]: the “primary reactivation (UL29+ single neurons)” value (“primary reactivation” for short) in assay [1] is “reduced”.

Consider `COc1ccc(CCN2CCC(Nc3nc4ccccc4n3Cc3ccc(F)cc3)CC2)cc1` [compound 3, astemizole], for which the “HSV IE expression after removal of compound prior to infection” value (shortened to “HSV IE expression after removal”) in assay [2] is “recovery of HSV IE expression”. Moreover, the “HSV reactivation from latency (viral yield per explanted trigeminal ganglia)” value in assay [3] is listed as “block HSV reactivation from latency”.

`CN(C)CCCNC(=O)c1ccc(-c2cc(O)c3ncccc3c2)cc1` [ML324, N-(3-(dimethylamino)propyl)-4-(8-hydroxyquinolin-6-yl)benzamide]: in assay [1], the “primary reactivation” value is listed as “reduced” and the “secondary spread of HSV (UL29+ neuron clusters)” value is given as “reduced”.

Turning to `CCCc1cc(C)[nH]c(=O)c1CNC(=O)c1cc(-c2ccc(N3CCN(C(C)C)CC3)nc2)cc2c1cnn2C(C)C` [compound 2, UNC1999], in assay [2], the “HSV IE expression after removal” value is “recovery of HSV IE expression” and the “IL6 stimulation after removal of compound prior to infection” value was “decrease in IL6 stimulation”.

Turning to `CCCc1cc(C)[nH]c(=O)c1CNC(=O)c1cc(-c2ccnc(N3CCN(C)CC3)c2)cc2c1cnn2C(C)C` [compound 1, GSK343], the “antiviral activity (HSV IE mRNA) in Vero cells as compared to HFF (wild-type) cells” value in assay [4] is recorded as “lack of antiviral activity”. The “spread of HSV infection to adjacent cells (UL29 marker)” value in assay [5] was “block the spread of HSV to adjacent cells; also recorded: block the spread of HSV infection”. In assay [1], the “primary reactivation” value was “reduced” and the “secondary spread of HSV (UL29+ neuron clusters)” value is reported as “reduced”. In addition, in assay [2], the “HSV IE expression after removal” value is given as “recovery of HSV IE expression” and the “IL6 stimulation after removal of compound prior to infection” value was “decrease in IL6 stimulation”. Also, the “HSV-1 viral entry (total and nuclear)” value in assay [6] was “no impact”. Moreover, in assay [3], the “HSV reactivation from latency (viral yield per explanted trigeminal ganglia)” value is “block HSV reactivation from latency”.
